Results as given in the supplement of paper PMC6045584.
± gives the standard deviation of the averaged measurements.

What was measured:
[1] = compound: COc1cc2nccc(Oc3ccc(NC(=O)C4(C(=O)Nc5ccc(F)cc5)CC4)cc3)c2cc1OC [CABOZANTINIB]; assay: surviving fraction relative to DMSO-only wells; higher = less growth inhibition; settings: exposure time: 5 days
Procedure, shortened: (§1)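 Continuous five-day exposure to inhibitors at 0.5, 1, 5, 10, 50, 100, 500 and 1000 nM started 24 hours after log-phase tumour cell lines were seeded at 250–500 cells per well in 384-well plates. Luminescence was read after 10 minutes at room temperature. Viability is given as surviving fraction, meaning CellTiter-Glo luminescence normalised to the median of DMSO-only wells.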

[2] = compound: COc1cc2nccc(Oc3ccc(NC(=O)NC4CC4)c(Cl)c3)c2cc1C(N)=O [LENVATINIB]; assay: as above; settings: exposure time: 5 days
Procedure, shortened: as §1

Row | Test System | surviving fraction ([1]; 0.5 nM) | surviving fraction ([1]; 1 nM) | surviving fraction ([1]; 5 nM) | surviving fraction ([1]; 10 nM) | surviving fraction ([1]; 50 nM) | surviving fraction ([1]; 100 nM) | surviving fraction ([1]; 500 nM) | surviving fraction ([1]; 1000 nM) | surviving fraction ([2]; 0.5 nM) | surviving fraction ([2]; 1 nM) | surviving fraction ([2]; 5 nM) | surviving fraction ([2]; 10 nM) | surviving fraction ([2]; 50 nM) | surviving fraction ([2]; 100 nM) | surviving fraction ([2]; 500 nM) | surviving fraction ([2]; 1000 nM)
1 | SCC47 HEADNECK | 0.891 ± 0.022 | 0.894 ± 0.019 | 1.06 ± 0.062 | 1.03 ± 0.16 | 1.05 ± 0.14 | 1.08 ± 0.069 | 0.844 ± 0.025 | 0.922 ± 0.041 | 1.11 ± 0.068 | 1.02 ± 0.012 | 1.14 ± 0.021 | 1.14 ± 0.1 | 1.06 ± 0.024 | 1.11 ± 0.15 | 1.12 ± 0.081 | 1.08 ± 0.069
2 | SCC90 HEADNECK | 0.858 ± 0.053 | 0.819 ± 0.089 | 0.9093 ± 0.0042 | 0.997 ± 0.086 | 1.09 ± 0.17 | 1.05 ± 0.15 | 0.852 ± 0.081 | 0.874 ± 0.087 | 1.12 ± 0.056 | 1.12 ± 0.071 | 1.15 ± 0.13 | 1.22 ± 0.093 | 1.18 ± 0.098 | 1.17 ± 0.048 | 1.21 ± 0.085 | 1.3 ± 0.074
3 | SG27 HEADNECK | 1.02 ± 0.036 | 1.06 ± 0.021 | 0.971 ± 0.054 | 0.996 ± 0.1 | 1.14 ± 0.079 | 1.03 ± 0.13 | 0.975 ± 0.14 | 0.9483 ± 0.007 | 1.15 ± 0.18 | 1.11 ± 0.028 | 1.12 ± 0.093 | 1.1 ± 0.052 | 1.04 ± 0.21 | 0.985 ± 0.13 | 0.928 ± 0.025 | 0.957 ± 0.055
4 | SG28 HEADNECK | 1.07 ± 0.047 | 1.12 ± 0.061 | 0.968 ± 0.099 | 0.959 ± 0.023 | 1 ± 0.06 | 1 ± 0.16 | 1.06 ± 0.058 | 1.19 ± 0.26 | 1.01 ± 0.091 | 1.06 ± 0.058 | 1.04 ± 0.011 | 1.08 ± 0.072 | 1.09 ± 0.097 | 0.966 ± 0.069 | 1.1 ± 0.069 | 1.08 ± 0.097
5 | SG31 HEADNECK | 1.1 ± 0.21 | 1.07 ± 0.2 | 0.981 ± 0.073 | 0.97 ± 0.14 | 1.07 ± 0.24 | 0.97 ± 0.07 | 1.1 ± 0.067 | 1.11 ± 0.082 | 1.04 ± 0.17 | 1.17 ± 0.15 | 0.975 ± 0.3 | 0.977 ± 0.066 | 0.985 ± 0.12 | 0.967 ± 0.059 | 1.24 ± 0.09 | 1.12 ± 0.2
6 | SG32 HEADNECK | 1.06 ± 0.18 | 1 ± 0.17 | 0.922 ± 0.1 | 1.04 ± 0.29 | 0.901 ± 0.1 | 0.961 ± 0.13 | 0.968 ± 0.1 | 0.711 ± 0.05 | 1.21 ± 0.15 | 1.38 ± 0.028 | 1.15 ± 0.14 | 1.13 ± 0.2 | 1.05 ± 0.15 | 1.12 ± 0.2 | 1.41 ± 0.35 | 1.15 ± 0.12
7 | SG43 HEADNECK | 0.887 ± 0.051 | 0.863 ± 0.15 | 0.883 ± 0.019 | 0.788 ± 0.11 | 0.759 ± 0.18 | 0.737 ± 0.2 | 0.757 ± 0.056 | 0.708 ± 0.072 | 0.959 ± 0.18 | 1.01 ± 0.3 | 0.772 ± 0.11 | 0.842 ± 0.098 | 0.84 ± 0.14 | 0.93 ± 0.24 | 1.13 ± 0.17 | 1.09 ± 0.11
8 | SIHA CERVIX | 0.857 ± 0.073 | 0.835 ± 0.051 | 0.979 ± 0.02 | 0.918 ± 0.017 | 0.988 ± 0.024 | 0.929 ± 0.038 | 0.737 ± 0.032 | 0.68 ± 0.033 | 1.07 ± 0.016 | 1.1 ± 0.04 | 1.12 ± 0.049 | 1.11 ± 0.085 | 1.2 ± 0.14 | 1.18 ± 0.05 | 1.04 ± 0.13 | 0.97 ± 0.035
9 | SJSA1 BONE | 1.47 ± 0.13 | 1.63 ± 0.045 | 1.56 ± 0.07 | 1.75 ± 0.071 | 1.627 ± 0.0032 | 1.74 ± 0.13 | 1.65 ± 0.059 | 1.78 ± 0.089 | 1.04 ± 0.034 | 1.02 ± 0.034 | 1.09 ± 0.087 | 1.09 ± 0.051 | 1.15 ± 0.014 | 1.07 ± 0.029 | 1.03 ± 0.022 | 0.997 ± 0.015
10 | SKBR3 BREAST | 1.02 ± 0.1 | 0.954 ± 0.11 | 1.07 ± 0.083 | 0.973 ± 0.011 | 1.12 ± 0.11 | 1.06 ± 0.098 | 0.987 ± 0.077 | 0.973 ± 0.025 | 1 ± 0.18 | 1.08 ± 0.11 | 1.04 ± 0.15 | 1.06 ± 0.099 | 1.05 ± 0.19 | 1.16 ± 0.11 | 1.1 ± 0.068 | 0.944 ± 0.17
11 | SNU475 LIVER | 1 ± 0.033 | 0.972 ± 0.049 | 0.987 ± 0.031 | 0.991 ± 0.053 | 1 ± 0.012 | 0.985 ± 0.048 | 0.923 ± 0.023 | 0.876 ± 0.021 | 1.04 ± 0.069 | 1.04 ± 0.042 | 1.02 ± 0.07 | 1.03 ± 0.03 | 0.971 ± 0.045 | 1.03 ± 0.018 | 0.995 ± 0.037 | 1 ± 0.016
12 | SUM44 BREAST | 1.21 ± 0.32 | 1.18 ± 0.3 | 1.24 ± 0.24 | 1.21 ± 0.23 | 1.36 ± 0.4 | 1.3 ± 0.35 | 1.2 ± 0.33 | 1.27 ± 0.39 | 1.01 ± 0.06 | 1.03 ± 0.054 | 1.03 ± 0.048 | 1.04 ± 0.018 | 1.05 ± 0.044 | 1.07 ± 0.052 | 1.03 ± 0.029 | 1.01 ± 0.015
13 | SUM149 BREAST | 1.03 ± 0.054 | 0.979 ± 0.19 | 0.912 ± 0.061 | 0.997 ± 0.021 | 0.987 ± 0.12 | 0.96 ± 0.084 | 0.91 ± 0.15 | 0.924 ± 0.091 | 1.07 ± 0.12 | 1.04 ± 0.061 | 1.05 ± 0.025 | 1.02 ± 0.16 | 1.04 ± 0.076 | 1.01 ± 0.066 | 0.992 ± 0.06 | 0.965 ± 0.084
14 | SUM149.B1*.S BREAST | 1.03 ± 0.07 | 1.02 ± 0.034 | 0.998 ± 0.046 | 1.04 ± 0.025 | 1.039 ± 0.0013 | 0.979 ± 0.037 | 0.992 ± 0.029 | 0.967 ± 0.021 | 1.11 ± 0.031 | 1.15 ± 0.018 | 1.15 ± 0.03 | 1.11 ± 0.044 | 1.19 ± 0.029 | 1.15 ± 0.031 | 1.17 ± 0.052 | 1.14 ± 0.042
15 | SUM159 BREAST | 1.02 ± 0.03 | 1.02 ± 0.028 | 1.01 ± 0.026 | 1.01 ± 0.036 | 1 ± 0.025 | 1.01 ± 0.034 | 0.986 ± 0.036 | 0.977 ± 0.025 | 1.16 ± 0.15 | 1.15 ± 0.11 | 1.11 ± 0.096 | 1.13 ± 0.12 | 1.08 ± 0.034 | 1.04 ± 0.088 | 1.08 ± 0.021 | 1.08 ± 0.017
16 | SYO1 SYNOVIAL | 0.92 ± 0.027 | 0.938 ± 0.042 | 0.929 ± 0.037 | 0.859 ± 0.02 | 0.807 ± 0.022 | 0.818 ± 0.044 | 0.721 ± 0.041 | 0.694 ± 0.031 | 0.942 ± 0.11 | 0.962 ± 0.025 | 0.918 ± 0.017 | 0.889 ± 0.042 | 0.768 ± 0.079 | 0.667 ± 0.042 | 0.528 ± 0.031 | 0.504 ± 0.02
17 | T47D BREAST | 0.969 ± 0.016 | 0.988 ± 0.028 | 1.02 ± 0.038 | 1.04 ± 0.075 | 1.059 ± 0.0083 | 1.07 ± 0.021 | 1.07 ± 0.034 | 1.03 ± 0.022 | 1.09 ± 0.018 | 1.09 ± 0.018 | 1.08 ± 0.044 | 1.06 ± 0.057 | 1.1 ± 0.028 | 1.13 ± 0.046 | 1.12 ± 0.064 | 1.1 ± 0.023
18 | U2OS BONE | 1.015 ± 0.0081 | 1.02 ± 0.028 | 1.03 ± 0.022 | 1.003 ± 0.0091 | 1.03 ± 0.046 | 1.02 ± 0.015 | 0.932 ± 0.018 | 0.914 ± 0.02 | 1.01 ± 0.038 | 0.99 ± 0.045 | 1.04 ± 0.039 | 1.02 ± 0.027 | 1.02 ± 0.019 | 1.02 ± 0.033 | 0.891 ± 0.051 | 0.832 ± 0.027
19 | VCAP PROSTATE | 0.921 ± 0.16 | 1.01 ± 0.046 | 1.05 ± 0.037 | 0.996 ± 0.07 | 1.06 ± 0.043 | 1.026 ± 0.004 | 0.992 ± 0.065 | 0.871 ± 0.056 | 1.03 ± 0.038 | 1.04 ± 0.12 | 1.17 ± 0.15 | 1.12 ± 0.1 | 1.1 ± 0.11 | 1.17 ± 0.079 | 0.962 ± 0.097 | 0.97 ± 0.078
20 | VP229 BREAST | 1.08 ± 0.1 | 1.04 ± 0.14 | 1.04 ± 0.15 | 0.952 ± 0.18 | 1.15 ± 0.2 | 0.998 ± 0.12 | 1.09 ± 0.088 | 0.966 ± 0.061 | 1.29 ± 0.23 | 1.14 ± 0.17 | 1.21 ± 0.093 | 0.969 ± 0.044 | 1.36 ± 0.17 | 1.34 ± 0.14 | 1.47 ± 0.13 | 1.42 ± 0.081
21 | YAMATO SYNOVIAL | 1.19 ± 0.048 | 1.16 ± 0.076 | 1.11 ± 0.04 | 1.01 ± 0.028 | 0.826 ± 0.044 | 0.678 ± 0.018 | 0.374 ± 0.0056 | 0.373 ± 0.02 | 1.18 ± 0.073 | 1.15 ± 0.05 | 1.13 ± 0.12 | 1.06 ± 0.072 | 1.1 ± 0.062 | 1.14 ± 0.13 | 0.953 ± 0.08 | 0.949 ± 0.017
22 | ZR751 BREAST | 0.87 ± 0.067 | 1.02 ± 0.013 | 1.05 ± 0.083 | 0.995 ± 0.032 | 1.04 ± 0.12 | 1.03 ± 0.086 | 1.07 ± 0.081 | 1.03 ± 0.087 | 1.04 ± 0.12 | 0.964 ± 0.15 | 0.926 ± 0.035 | 0.84 ± 0.071 | 1.06 ± 0.092 | 1.1 ± 0.088 | 0.915 ± 0.23 | 1.04 ± 0.022
